# Assay results from patent US12421222B2 (AUGUSTINE THERAPEUTICS, priority 2021, dated 2025).
# System: acetylated tubulin (Lys40) in HeLa cells
# Assay: Acetylated α-tubulin measurement in vitro (immunocytochemistry)
# Type: cell-based
# Conditions: Homo sapiens, 6 hours incubation, acetylated tubulin (Lys40) by immunocytochemistry, read-out: IC50 (Tubulin deacetylation)
# Protocol: HeLa cells were cultured in UltraCulture serum-free medium (Lonza) supplemented with 2 mM glutamine (Lonza). Assays were performed at 96-well or 384-well format, differences in assay protocols are detailed in Table 6. Cells per well were plated and incubated overnight at 37° C. overnight in a humidified atmosphere containing 5% CO2. Cell density and seeding volumes are detailed in Table 6. Compounds (dissolved in 100% DMSO) or DMSO (vehicle) were added manually by diluting them in culture medium at 10× final assay concentration and adding 10 μL to cells (96-well protocol). Alternatively, 50 nL compound was added directly to the cell culture using the Echo650 (Labcyte) (384-well protocol). In this assay, the final assay concentration of DMSO is 0.1%-0.4%. Trichostatin A (TSA) was used as a positive control. Cells were incubated with compounds at 37° C. in a humidified atmosphere containing 5% CO2 for 6 hours. Levels of acetylated tubulin (Lys40) were assessed by immunocytochemistry using target-specific antibodies. Cells were fixed with 4% PFA at RT as detailed in Table 6. After 2-3 wash steps with PBS, cells were permeabilized with 0.5% Triton in PBS at RT for 10 minutes followed by 1-2 washes with PBS. To avoid non-specific antibody staining, cells were blocked with 3% BSA in PBS at room temperature for 1 hour. […] Cells were washed 2-3 times with PBS and labelled for 1 h at RT with goat anti-mouse conjugated with Alexa 647 (Thermofisher) and goat anti-rabbit conjugated with Alexa 555 (Thermofisher) secondary antibodies, diluted in 1% BSA to a final concentration of 1:1000. Simultaneously, nuclei were stained with 1:10000-1:15000 Hoechst (Thermofisher). Incubation time and temperature of the primary antibodies are detailed in Table 6. Cells were washed 2-3 times with PBS and they were imaged with the Operetta CLS or Opera Phenix (PerkinElmer). Imaging is further detailed in Table 6. For imaging analysis, the Harmony analysis software (PerkinElmer) was used. Cytoplasmic (defined by total α-tubulin staining) intensities per well were used for α-tubulin (acetylated and total) quantification. Intensities were measured per cell and then averaged per well. Mean intensity levels of acetylated tubulin were normalized to the mean intensity levels of total tubulin. The changes in acetylated tubulin were normalized for each plate using GraphPad Prism software: tubulin acetylation in vehicle (DMSO)-treated cells were set to 0% while tubulin acetylation in TSA-treated cells were set to 100%. EC50 values were calculated using the log(inhibitor) vs. response—Variable slope (four parameters) nonlinear regression in GraphPad Prism software.
row,IC50 [nM],SMILES
1,≤ 100,"O=C(CSc1nc2nc(C(F)(F)F)ccc2o1)c1ccc(CNC(=O)C2(O)CC2)s1 [Example 45, 1-hydroxy-N-((5-(2-((5-(trifluoromethyl)oxazolo[4,5-b]157yrrolid-2-yl)thio)acetyl)thiophen-2-yl)methyl)cyclopropane-1-carboxamide]"
2,100 to 500,"Cn1cc2c(SCC(=O)c3ccc(CNC(=O)C(O)C(F)(F)F)s3)nc(C(F)(F)F)nc2n1 (stereo not drawn) [Example 46, 3,3,3-trifluoro-2-hydroxy-N-((5-(2-((2-methyl-6-(trifluoromethyl)-2H-pyrazolo[3,4-d]pyrimidin-4-yl)thio)acetyl)thiophen-2-yl)methyl)propanamide]"
3,100 to 500,"O=C(CSc1nc(C(F)(F)F)nc2ccc(N3CCOCC3)cc12)c1ccc(CNC(=O)C2(O)CC2)s1 [Example 47, 1-hydroxy-N-((5-(2-((6-morpholino-2-(trifluoromethyl)quinazolin-4-yl)thio)acetyl)thiophen-2-yl)methyl)cyclopropane-1-carboxamide]"
4,100 to 500,"Cn1cc2c(SCC(=O)c3ccc(CNC(=O)C(C)(C)O)s3)nc(C(F)(F)F)nc2n1 [Example 48, 2-hydroxy-2-methyl-N-((5-(2-((2-methyl-6-(trifluoromethyl)-2H-pyrazolo[3,4-d]pyrimidin-4-yl)thio)acetyl)thiophen-2-yl)methyl)propanamide]"
5,100 to 500,"Cn1cc2c(SCC(=O)c3ccc(CNC(=O)C4(O)CC4)s3)nc(C(F)(F)F)nc2n1 [Example 49, 1-hydroxy-N-((5-(2-((2-methyl-6-(trifluoromethyl)-2H-pyrazolo[3,4-d]pyrimidin-4-yl)thio)acetyl)thiophen-2-yl)methyl)cyclopropane-1-carboxamide]"
6,100 to 500,"COc1ccc2nc(C)nc(SCC(=O)c3ccc(CNC(=O)C4(O)CC4)s3)c2c1 [Example 50, 1-hydroxy-N-((5-(2-((6-methoxy-2-methylquinazolin-4-yl)thio)acetyl)thiophen-2-yl)methyl)cyclopropane-1-carboxamide]"
7,1000 to 3330,"COc1ccc2nc(C)nc(SCC(=O)c3ccc(CNC(=O)C4CC4)s3)c2c1 [Example 51, N-((5-(2-((6-methoxy-2-methylquinazolin-4-yl)thio)acetyl)thiophen-2-yl)methyl)cyclopropanecarboxamide]"
8,100 to 500,"Cn1ncc2c(SCC(=O)c3ccc(CNC(=O)CO)s3)ncnc21 [Example 59, 2-hydroxy-N-((5-(2-((1-methyl-1H-pyrazolo[3,4-d]pyrimidin-4-yl)thio)acetyl)thiophen-2-yl)methyl)acetamide]"
9,100 to 500,"COc1ccc2nc(C)nc(SCC(=O)c3ccc(CNC(=O)CO)s3)c2c1 [Example 60, 2-Hydroxy-N-((5-(2-((6-methoxy-2-methylquinazolin-4-yl)thio)acetyl)thiophen-2-yl)methyl)acetamide]"
10,≤ 100,"Cn1cc2c(SCC(=O)c3ccc(CNC(=O)CO)s3)nc(C(F)(F)F)nc2n1 [Example 61, 2-hydroxy-N-((5-(2-((2-methyl-6-(trifluoromethyl)-2H-pyrazolo[3,4-d]pyrimidin-4-yl)thio)acetyl)thiophen-2-yl)methyl)acetamide]"
11,100 to 500,"CCc1nc(SCC(=O)c2ccc(CNC(=O)CO)s2)c2ccccc2n1 [Example 62, N-((5-(2-((2-ethylquinazolin-4-yl)thio)acetyl)thiophen-2-yl)methyl)-2-hydroxyacetamide]"
12,100 to 500,O=C(CO)NCc1ccc(C(=O)CSc2nc(C(F)(F)F)nc3ccc(N4CCOCC4)cc23)s1 [Example 63]
13,≤ 100,"Cc1nc(SCC(=O)c2ccc(CNC(=O)CO)s2)c2cccnc2n1 [Example 64, 2-hydroxy-N-((5-(2-((2-methylpyrido[2,3-d]pyrimidin-4-yl)thio)acetyl)thiophen-2-yl)methyl)acetamide]"
14,1000 to 3330,"Cc1nc(SCC(=O)c2ccc(CNC(=O)CO)s2)c2cn(C)nc2n1 [Example 65, N-((5-(2-((2,6-dimethyl-2H-pyrazolo[3,4-d]pyrimidin-4-yl)thio)acetyl)thiophen-2-yl)methyl)-2-hydroxyacetamide]"
15,100 to 500,"Cc1nc(SCC(=O)c2ccc(CNC(=O)CO)s2)c2ccccc2n1 [Example 66, 2-hydroxy-N-((5-(2-((2-methylquinazolin-4-yl)thio)acetyl)thiophen-2-yl)methyl)acetamide]"
16,100 to 500,"Cc1nc(SCC(=O)c2ccc(CNC(=O)CO)s2)c2cc(F)ccc2n1 [Example 67, N-((5-(2-((6-fluoro-2-methylquinazolin-4-yl)thio)acetyl)thiophen-2-yl)methyl)-2-hydroxyacetamide]"
17,100 to 500,"Cc1nc(SCC(=O)c2ccc(CNC(=O)CO)s2)c2ccc(F)cc2n1 [Example 68, N-((5-(2-((7-fluoro-2-methylquinazolin-4-yl)thio)acetyl)thiophen-2-yl)methyl)-2-hydroxyacetamide]"
18,100 to 500,"Cn1cc2c(SCC(=O)c3ccc(CNC(=O)CO)s3)nc(C(F)F)nc2n1 [Example 69, N-((5-(2-((6-(difluoromethyl)-2-methyl-2H-pyrazolo[3,4-d]pyrimidin-4-yl)thio)acetyl)thiophen-2-yl)methyl)-2-hydroxyacetamide]"
19,100 to 500,"COc1ccc2c(SCC(=O)c3ccc(CNC(=O)CO)s3)nc(C)nc2c1 [Example 70, 2-hydroxy-N-((5-(2-((7-methoxy-2-methylquinazolin-4-yl)thio)acetyl)thiophen-2-yl)methyl)acetamide]"
20,≤ 100,"O=C(CO)NCc1ccc(C(=O)CSc2nc3cc(C(F)(F)F)ncc3o2)s1 [Example 71, 2-hydroxy-N-((5-(2-((6-(trifluoromethyl)oxazolo[5,4-c]156yrrolid-2-yl)thio)acetyl)thiophen-2-yl)methyl)acetamide]"
21,≤ 100,"O=C(CO)NCc1ccc(C(=O)CSc2nc3nc(C(F)(F)F)ccc3o2)s1 [Example 72, 2-hydroxy-N-((5-(2-((5-(trifluoromethyl)oxazolo[4,5-b]156yrrolid-2-yl)thio)acetyl)thiophen-2-yl)methyl)acetamide]"
22,100 to 500,"Cc1nc(SCC(=O)c2ccc(CNC(=O)CO)s2)c2cc(Cl)c(F)cc2n1 [Example 73, N-((5-(2-((6-chloro-7-fluoro-2-methylquinazolin-4-yl)thio)acetyl)thiophen-2-yl)methyl)-2-hydroxyacetamide]"
23,100 to 500,"Cn1ncc2c(SCC(=O)c3ccc(CNC(=O)CO)s3)nc(C(F)(F)F)nc21 [Example 74, 2-hydroxy-N-((5-(2-((1-methyl-6-(trifluoromethyl)-1H-pyrazolo[3,4-d]pyrimidin-4-yl)thio)acetyl)thiophen-2-yl)methyl)acetamide]"
24,≤ 100,"Cc1nc(SCC(=O)c2ccc(CNC(=O)CO)s2)c2cc(C(F)(F)F)ccc2n1 [Example 76, 2-hydroxy-N-((5-(2-((2-methyl-6-(trifluoromethyl)quinazolin-4-yl)thio)acetyl)thiophen-2-yl)methyl)acetamide]"
25,100 to 500,"Cc1nc(SCC(=O)c2ccc(CNC(=O)CO)s2)c2cc(OC3CC3)ccc2n1 [Example 77, N-((5-(2-((6-cyclopropoxy-2-methylquinazolin-4-yl)thio)acetyl)thiophen-2-yl)methyl)-2-hydroxyacetamide]"
26,100 to 500,"Cc1nc(SCC(=O)c2ccc(CNC(=O)CO)s2)c2cc(NCC3CC3)ccc2n1 [Example 78, N-((5-(2-((6-((cyclopropylmethyl)amino)-2-methylquinazolin-4-yl)thio)acetyl)thiophen-2-yl)methyl)-2-hydroxyacetamide]"
27,≤ 100,"O=C(CO)NCc1ccc(C(=O)CSc2nc(C(F)(F)F)nc3nn(C4CC4)cc23)s1 [Example 79, N-((5-(2-((2-cyclopropyl-6-(trifluoromethyl)-2H-pyrazolo[3,4-d]pyrimidin-4-yl)thio)acetyl)thiophen-2-yl)methyl)-2-hydroxyacetamide]"
28,100 to 500,"COc1ccc2nc(C(F)(F)F)nc(SCC(=O)c3ccc(CNC(=O)CO)s3)c2c1 [Example 80, 2-hydroxy-N-((5-(2-((6-methoxy-2-(trifluoromethyl)quinazolin-4-yl)thio)acetyl)thiophen-2-yl)methyl)acetamide]"
29,100 to 500,"Cc1nc(SCC(=O)c2ccc(CNC(=O)CO)s2)c2cc(N3CCOCC3)ccc2n1 [Example 81, 2-hydroxy-N-((5-(2-((2-methyl-6-morpholinoquinazolin-4-yl)thio)acetyl)thiophen-2-yl)methyl)acetamide]"
30,≤ 100,"Cc1nc(SCC(=O)c2ccc(CNC(=O)CO)s2)c2cc(N3CCCCC3)ccc2n1 [Example 82, 2-hydroxy-N-((5-(2-((2-methyl-6-(piperidin-1-yl)quinazolin-4-yl)thio)acetyl)thiophen-2-yl)methyl)acetamide]"
